In patent US11945826B2, “Hydroxypyridoxazepines as NRF2 activators” (GLAXOSMITHKLINE INTELLECTUAL PROPERTY DEVELOPMENT LIMITED, priority 2019, dated 2024):

System: murine TAC model
Assay: Mouse Transverse Aortic Constriction (TAC) Left Ventricular Pressure Overload Model
Type: in vivo, C57BLK/6J mice
Conditions: 10-week mouse TAC, Example 1 at 1, 3, 10 mg/kg/d, Example B at 100 mg/kg/d
Description: Male C57BLK/6J mice (10-12 weeks old) were individually housed and acclimated to a standard powdered rodent diet for 1-3 days. Water was offered ad libitum throughout the study. Mice were initially anesthetized in a chamber using an 3% isoflurane with oxygen (1.0 L/min), and then maintained at 1.5% via nose cone (without intubation). A small incision (˜5 mm) was made just left of midline and just above the rib cage at the level of the suprasternal notch. The muscle tissue was retracted to expose the area above the pleural cavity. The lobes of the thymus were separated and retracted to expose the aortic arch. Fine surgical forceps with blunted tips were used to expose a region above and below the aorta. A micro blunt hook tied with 7-0 silk surgical suture was looped under the aorta and the suture pulled through. The suture was tied-off against a small piece of blunted 27 G needle and the needle was then removed creating the aortic constriction (a 60-70% constriction of the lumen). The incision was closed using 6-0 silk suture for the muscle layer, then the skin with Medbond. The sham procedure was identical without ligation of aorta. Depending on the individual study designs, drug administration began either on the day of surgery, or 1-2 weeks after surgery (detailed in figure legends) and continued until the end of study. Compounds were administered in the mouse chow unless otherwise noted in FIG. 12 legends. TAC study duration was either 6 weeks or 10 weeks in duration. All TAC study endpoints were collected at the end of study. Following heart dissections, samples were either snap frozen in liquid nitrogen and stored at −80° C. or placed in 10% neutral buffered formalin until analysis.
Echocardiography: For mouse TAC studies, echocardiography was performed on a Vevo 2100 high frequency imaging system. Animals were anesthetized with 2-3% isoflurane and sedation maintained with 1% isoflurane with animals on a heating pad. B-mode imaging of three cardiac cycles was used to assess ejection fraction (EF), end diastolic volume (EDV), end systolic volume (ESV), LV mass, and heart rate. ECG was used to measure heart rate during the echocardiography procedure.
NADPH dehydrogenase [quinone]-1 (NQO1) activity: Left ventricular (LV) tissue NQO1 activity was determined using an NQO1 assay kit per manufacturer's protocol (Abcam, Cambridge MA)
The KEAP1 blockers/Nrf2 activators, (R)-3-(1,4-dimethyl-1H-benzo[d][1,2,3]triazol-5-yl)-3-(3-(((R)-2-ethyl-7-hydroxy-2,3-dihydropyrido[2,3-f][1,4]oxazepin-4(5H)-yl)methyl)-4-methylphenyl)propanoic acid, hydrochloride, or a tautomer thereof (Example 1) (in dose-response) and (S)-3-(1,4-dimethyl-1H-benzo[d][1,2,3]triazol-5-yl)-3-(3-(((R)-2-ethyl-2,3-dihydropyrido[3,4-f][1,4]oxazepin-4(5H)-yl)methyl)-4-methylphenyl)-2,2-dimethylpropanoic acid (Example B) were evaluated in a 10-week mouse TAC model of severe hemodynamic stress.
FIG. 12 depicts the effect of the KEAP1-kelch domain blockers/Nrf2 activators (R)-3-(1,4-dimethyl-1H-benzo[d][1,2,3]triazol-5-yl)-3-(3-(((R)-2-ethyl-7-hydroxy-2,3-dihydropyrido[2,3-f][1,4]oxazepin-4(5H)-yl)methyl)-4-methylphenyl)propanoic acid, hydrochloride, or a tautomer thereof (Compound of Example 1) and (S)-3-(1,4-dimethyl-1H-benzo[d][1,2,3]triazol-5-yl)-3-(3-(((R)-2-ethyl-2,3-dihydropyrido[3,4-f][1,4]oxazepin-4(5H)-yl)methyl)-4-methylphenyl)-2,2-dimethylpropanoic acid (Compound B) on cardiac function, remodeling, and NQO1 enzyme activity in the murine 10-week TAC model. All compounds were dosed in chow beginning 2-weeks after TAC. […]

CC[C@@H]1CN(Cc2cc([C@@H](CC(=O)O)c3ccc4c(nnn4C)c3C)ccc2C)Cc2nc(O)ccc2O1 [Example 1, (R)-3-(1,4-dimethyl-1H-benzo[d][1,2,3]triazol-5-yl)-3-(3-(((R)-2-ethyl-7-hydroxy-2,3-dihydropyrido[2,3-f][1,4]oxazepin-4(5H)-yl)methyl)-4-methylphenyl)propanoic acid]
cardiac function as assessed by ejection fraction (daily in chow for eight weeks from 2 weeks after TAC): full normalization of cardiac function
NAD(P)H quinone oxidoreductase 1 (NQO1) in the LV (daily in chow for eight weeks): significant dose-related elevations
cardiac hypertrophy (left ventricular mass) (daily in chow for eight weeks): did not influence cardiac hypertrophy
unloading the heart (blood pressure) or heart rate (daily in chow for eight weeks): nor did the ejection fraction change occur by unloading the heart (i.e., lowering blood pressure) or increasing the heart rate
